According to patent US20240287065A1, “COMPOUND AS CDK KINASE INHIBITOR AND USE THEREOF” (TYK MEDICINES (ZHENGZHOU) , INC., priority 2021, published 2024):

What was measured:
OVCAR-3 cells = assay: OVCAR-3 xenograft tumor model; assay type: in vivo; conditions: 30 mg/kg, oral tube feeding twice daily for 21 days, BALB/c nude female mice
Procedure: OVCAR-3 cells were cultured in RPMI1640 culture medium containing 20% fetal bovine serum and 10 μg/mL Insalin. Cells in the exponential growth phase were collected, and the cells were resuspended in the mixed solution of PBS and Matrigel in a ratio of 1:1 to a suitable concentration for subcutaneous tumor inoculation in nude mice.
To establish a xenograft tumor model, 1×10^7 OVCAR-3 cells were suspended in 0.2 mL of a mixture of PBS and Matrigel (1:1) and injected subcutaneously into 6-8-week-old BALB/c nube female mice on the right back. Tumor growth was observed periodically, and the volume (volume=½[…](length×width 2)) was measured with a vernier caliper. When the tumors grew to an average volume of 100˜150 mm^3, the drug was administered to mice (27 days after inoculation) in random groups according to the tumor size and their body weights. […] Tumor volume and animal weight were measured twice a week and continued until the end of the experiment. Dosing day was defined as day 0. Measurement time points were day 0, day 3, day 7, day 10, day 14, day 17 and day 21. All mice were euthanized by cervical dislocation. At the end of the experiment, tumors were collected and weighed to calculate TGI values (see Table 5).

HCC1806 cells = assay: Cell proliferation inhibition assay (MTT, 7 days); assay type: cell-based; conditions: Homo sapiens, HCC1806, 168 h, HCC1086 [sic], 7 days incubation
Procedure, shortened: (§1)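 Cells were seeded per well at 3000 (MCF7, T47D), 2500 (OVCAR3) or 2000 (HCC1806) and attached overnight. Nine 3-fold compound dilutions (10000-1.52 nM before addition to cells, 0.1% DMSO medium) were applied for 7 days, refreshed on day 4, in 4 replicates. MTT (3 h) was read at 570 nm, normalised to DMSO and blank, and IC50 fitted by three-parameter curve.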

OVCAR3 cells = assay: Cell proliferation inhibition assay (MTT, 7 days); assay type: cell-based; conditions: Homo sapiens, OVCAR-3, 168 h, 7 days incubation
Procedure, shortened: as §1

T47D cells = assay: Cell proliferation inhibition assay (MTT, 7 days); assay type: cell-based; conditions: Homo sapiens, 168 h, 7 days incubation
Procedure, shortened: as §1

MCF7 cells = assay: Cell proliferation inhibition assay (MTT, 7 days); assay type: cell-based; conditions: Homo sapiens, 168 h, 7 days incubation
Procedure, shortened: as §1

MV4-11 cells = assay: MV4-11 xenograft tumor model; assay type: in vivo; conditions: oral tube feeding twice a day for 15 days, NOD/SCID mice
Procedure: MV-4-11 cells were cultured in IMEM culture medium containing 10% fetal bovine serum. Cells in the exponential growth phase were collected, and the cells were resuspended in PBS to a suitable concentration for subcutaneous tumor inoculation in nude mice.
To establish a xenograft tumor model, 5×10^6 MV4-11 cells were suspended in 0.1 mL of a 1:1 mixture of PBS and Matrigel and injected subcutaneously into the right dorsal side of 6-8-week-old NOD/SCID mice. Tumor growth was observed periodically, and the volume (volume=½×(length×width^2)) was measured with a vernier caliper. When the tumors grew to an average volume of 100˜150 mm^3, the drug was administered to mice (12 days after inoculation) in random groups according to the tumor size and their body weights. […] Among them, the mice in the Vehicle, 10 mg/kg TY-3301, 10 mg/kg C3, and 20 mg/kg C3 groups were administered twice a day by oral tube feeding for 15 days, and the mice in the 20 mg/kg TY-3300 group were administered once a day by oral tube feeding for 15 days. Tumor volume and animal weight were measured twice a week and continued until the end of the experiment. Dosing day was defined as day 0. Measurement time points were day 0, day 3, day 7, day 10, day 14, and day 15. All mice were euthanized by cervical dislocation. At the end of the experiment, tumors were collected and weighed to calculate TGI values (see Table 6).

Row | IC50 (HCC1806 cells) [nM] | IC50 (OVCAR3 cells) [nM] | IC50 (T47D cells) [nM] | IC50 (MCF7 cells) [nM] | SMILES | TGI (OVCAR-3 cells) [%] | TGI (MV4-11 cells; 10 mg/kg) [%] | TGI (MV4-11 cells; 20 mg/kg) [%]
1 | 50 to 5200 | ≤ 50 | 50 to 5200 | 50 to 5200 | C[C@@]1(O)CCC[C@H]1n1c(=O)c(OC(F)F)cc2cnc(NC3CCN(S(C)(=O)=O)CC3)nc21 [Example 3] | 71.3 | 69.5 | 95.3
2 | 50 to 5200 | 50 to 5200 | ≤ 50 | 50 to 5200 | C[C@@]1(O)CCC[C@H]1n1c(=O)c(C(F)F)cc2cnc(NC3CCN(S(C)(=O)=O)CC3)nc21 [PF-06873600, reference compound] | 52.6 | 60.9 | 
